19 compounds from PubChem BioAssay (NCI) can be followed below.

What all share (experiment): NCI-60 cell line screen, 48 h
The subject of assay [1] is 786-0 renal.
Assay [2] concerns HOP-62 NSCLC.
In assay [3] the test system is IGROV1 ovarian.
For assay [4], the system named is NCI-H226 lung.
Assay [5] deals with NCI/ADR-RES ovarian.
The subject of assay [6] is SK-OV-3 ovarian.
Assay [7] deals with K-562 leukemia.

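Assay format: 96-well plates, 48-hour exposure. The concentration for 50% growth inhibition is given as GI50. The concentration for full growth arrest is given as TGI.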 Where a SMILES comes first, the peptide text is derived from it. Side-chain parts run from the residue outwards. The star is where a group is joined. Cbz = O=C(OCc1ccccc1)*; Boc = CC(C)(C)OC(=O)*

On to `O=C(c1ccccc1)c1c(C(F)(F)F)n([O-])c2cc(F)c(F)cc2[n+]1=O`, for which the TGI was 1.03 µM in assay [1]; 2.26 µM in assay [2]; 6.79 µM in assay [3]; 5.69 µM in assay [4]; 1.63 µM in assay [5]; more than 49.5 µM in assay [6].
As for `CC(C)(C)OC(=O)n1c(Cl)c(C=O)c2ccccc21`, the TGI in assay [1] is 46.6 µM; in assay [2] it was 43 µM; in assay [3], more than 100 µM; in assay [7], more than 100 µM; in assay [5], 58 µM; in assay [6], more than 100 µM.
`COc1ccc(-c2nc(-c3cnccn3)n(Cc3ccccc3)n2)cc1`: the TGI in assay [1], in assay [2], in assay [3], in assay [7], in assay [5] and in assay [6] was more than 100 µM throughout.
With `O=C1CC(C(COCc2ccccc2)OCc2ccccc2)CC(=O)N1` (stereo not drawn), the TGI in assay [1], in assay [2], in assay [3], in assay [7] and in assay [4] was more than 100 µM each time.
Regarding `CC(C)(C)OC(=O)NC(CCCCNC(=O)CNC(=O)OCc1ccccc1)C(=O)NC(CCCCNC(=O)CNC(=O)OCc1ccccc1)C(=O)NC(CCCCNC(=O)CNC(=O)OCc1ccccc1)C(=O)NC(CCCCNC(=O)CNC(=O)OCc1ccccc1)C(=O)O` (stereo not drawn) (Boc-K([Gly-Cbz])K([Gly-Cbz])K([Gly-Cbz])K([Gly-Cbz])-OH; configuration not given here), the TGI in assay [1], in assay [2], in assay [3], in assay [7] and in assay [4] was more than 100 µM each time.
For `COc1ccc(C2=C(Cl)c3cc(OC)c(OC)cc3C2)cc1OC`, the TGI in assay [1], in assay [2], in assay [3], in assay [7], in assay [4] and in assay [6] was more than 100 µM throughout.
For the compound `COc1cc(C(O)C(=O)c2cnc3cc([N+](=O)[O-])ccc3n2)ccc1O` (stereo not drawn), the TGI in assay [1], in assay [2], in assay [3], in assay [7] and in assay [6] was more than 100 µM in each case.
For the compound `Cc1c2cccc-2c(OCCOC(=O)n2ccnc2)cc2c1[nH]c1ccccc12`, the TGI came to 19.9 µM in assay [1]; 28.4 µM in assay [2]; 6.23 µM in assay [3]; 21.7 µM in assay [7]; 8.13 µM in assay [4]; 18.8 µM in assay [6].
Turning to `COc1cc2c(c(OC)c1OC)-c1ccc(SC)c(=O)cc1[C@@H](NCc1cccc([N+](=O)[O-])c1)CC2`, the TGI in assay [1] is 34.4 µM; in assay [3], more than 100 µM; in assay [7], 2.39 µM; in assay [4], less than 0.01 µM; in assay [6], more than 100 µM.
Take `COc1ccc([C@H]2c3cc4c(cc3OC(O)(CO)[C@H]2C(=O)O)OCO4)c(OC)c1` (stereo partly drawn) (tested in a mixture with another compound): the TGI in assay [2], in assay [3], in assay [7], in assay [4] and in assay [6] was more than 100 µM in each case.
As for `CN(C)CC1CCCc2ccccc2C1=O` (stereo not drawn), the TGI in assay [1] is 2.8 µM; in assay [2], 33.7 µM; in assay [3] it was 4.17 µM; in assay [4], 48.8 µM; in assay [5], 17.5 µM; in assay [6], 32.7 µM.
Consider `CC(C)C1=C(Cc2ccccc2)C(=O)O/C1=C\c1ccc(O)c(Cl)c1`, for which the TGI in assay [1] was determined as 30.5 µM; in assay [2], 31.7 µM; in assay [3] it was 30.5 µM; in assay [7], 38.8 µM; in assay [4] it was 30.6 µM; in assay [6] it was 33.7 µM.
Take `C1=CN2C[n+]3ccc4ccccc4c3N=C2c2ccccc21`: the TGI is 10.3 µM in assay [1]; 32.5 µM in assay [2]; 20.2 µM in assay [3]; 12.5 µM in assay [7]; more than 100 µM in assay [5]; 47.8 µM in assay [6].
Turning to `COc1ccc(CCCN2c3ccccc3Sc3ccccc32)cc1`, the TGI in assay [1], in assay [2], in assay [3], in assay [7], in assay [4] and in assay [6] was more than 100 µM each time.
With `O=C(NN1C(=O)C(Cl)C1c1ccccc1Cl)c1ccccc1O` (stereo not drawn), the TGI in assay [1], in assay [7], in assay [4] and in assay [6] was more than 100 µM in each case.
In the case of `COc1cc(-c2nc3cc(Cl)c(Cl)cc3[nH]2)ccc1OCC(=O)N=Nc1c(O)[nH]c2ccc(Cl)cc12`, the GI50 in assay [2] was 0.455 µM; in assay [7], 0.284 µM; in assay [5] it was more than 100 µM; in assay [6], 1.83 µM. Besides, the TGI in assay [2] is 1.98 µM; in assay [5], more than 100 µM; in assay [6], 4.57 µM.
In the case of `OC1(c2ccc(Cl)cc2)c2c(c3ccccc3c3ccccc23)C2=NCCN21` (stereo not drawn), the TGI in assay [1] was 15.2 µM; in assay [2] it was 24.2 µM; in assay [3] it was 18.2 µM; in assay [7], more than 100 µM; in assay [5], 25.5 µM; in assay [6], 31.3 µM.
As to `O=c1c2cc(I)ccc2nc(SCc2nnco2)n1Cc1ccccc1`, the TGI in assay [1], in assay [2], in assay [3], in assay [4], in assay [5] and in assay [6] was more than 100 µM in each case.
As for `CC1=CC(=O)/C(=C/n2c(=S)[nH]c3cc(C)ccc32)C(=O)O1`, the TGI in assay [1], in assay [2], in assay [3], in assay [4], in assay [5] and in assay [6] was more than 100 µM throughout.
